In PubChem BioAssay (NCI):
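Cells were grown in 96-well plates and exposed to each compound for 48 hours at five concentrations; endpoints were interpolated linearly between bracketing concentrations, or set to the highest concentration if not reached. TGI: total growth inhibition.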

Assays:
Test in all cases: NCI anticancer screen, dose series, 48 h
[1] = tested on: HL-60(TB) leukemia
[2] = tested on: KM20L2 colon
[3] = tested on: ACHN renal
[4] = tested on: MOLT-4 leukemia
[5] = tested on: SK-OV-3 ovarian
[6] = tested on: A498 renal
[7] = tested on: OVCAR-5 ovarian
[8] = tested on: SR leukemia
[9] = tested on: IGROV1 ovarian
[10] = tested on: CAKI-1 renal
[11] = tested on: RPMI-8226 leukemia
[12] = tested on: SK-MEL-2 melanoma
[13] = tested on: UO-31 renal
[14] = tested on: HOP-92 NSCLC
[15] = tested on: HOP-62 NSCLC
[16] = tested on: TK-10 renal
[17] = tested on: UACC-62 melanoma
[18] = tested on: OVCAR-8 ovarian
[19] = tested on: MDA-MB-231 breast
[20] = tested on: OVCAR-3 ovarian
[21] = tested on: U251 CNS
[22] = tested on: PC-3 prostate
[23] = tested on: NCI-H226 lung
[24] = tested on: EKVX NSCLC
[25] = tested on: BT-549 breast
[26] = tested on: HCT-116 colon
[27] = tested on: OVCAR-4 ovarian
[28] = tested on: MCF7 breast
[29] = tested on: HCT-15 colon
[30] = tested on: SNB-75 CNS
[31] = tested on: SN12C renal
[32] = tested on: HCC-2998 colon
[33] = tested on: SF-295 CNS
[34] = tested on: SF-539 CNS
[35] = tested on: A549 NSCLC
[36] = tested on: MDA-MB-435
[37] = tested on: NCI/ADR-RES ovarian
[38] = tested on: NCI-H460 lung
[39] = tested on: SK-MEL-28 melanoma
[40] = tested on: LOX IMVI melanoma
[41] = tested on: K-562 leukemia
[42] = tested on: HS 578T breast
[43] = tested on: NCI-H522 lung
[44] = tested on: MDA-N
[45] = tested on: UACC-257 melanoma
[46] = tested on: HT29 colon
[47] = tested on: SW-620 colon
[48] = tested on: SNB-19 CNS
[49] = tested on: COLO 205 colon
[50] = tested on: MALME-3M melanoma
[51] = tested on: KM12 colon
[52] = tested on: 786-0 renal
[53] = tested on: DU-145 prostate
[54] = tested on: SK-MEL-5 melanoma
[55] = tested on: SF-268 CNS
[56] = tested on: T-47D breast
[57] = tested on: M14 melanoma
[58] = tested on: NCI-H23 lung
[59] = tested on: CCRF-CEM leukemia
[60] = tested on: RXF 393 renal

## CCCCCC(=O)OC[n+]1ccc2c(C)c3[nH]c4ccccc4c3c(C)c2c1
[1]
  TGI: > 100 µM
[2]
  TGI: 2750 nM
[3]
  TGI: 11.1 µM
[4]
  TGI: 8.26 µM
[5]
  TGI: 5.13 µM
[6]
  TGI: 2.67 µM
[7]
  TGI: 2.75 µM
[8]
  TGI: 12 µM
[9]
  TGI: 38.6 µM
[10]
  TGI: 7.75 µM
[11]
  TGI: 1.78 µM
[12]
  TGI: 29.8 µM
[13]
  TGI: 13 µM
[14]
  TGI: > 100 µM
[15]
  TGI: 4.14 µM
[16]
  TGI: 15.4 µM

## COC(=O)c1ccc2[nH]c3c(c2c1)CC(=O)Nc1ccccc1-3
[17]
  TGI: > 100 µM
[3]
  TGI: > 100 µM
[18]
  TGI: > 100 µM
[19]
  TGI: > 100 µM
[20]
  TGI: > 100 µM
[21]
  TGI: 94.6 µM
[22]
  TGI: > 100 µM
[5]
  TGI: > 100 µM
[6]
  TGI: > 100 µM
[7]
  TGI: > 100 µM
[8]
  TGI: 25 µM
[23]
  TGI: > 100 µM
[24]
  TGI: > 100 µM
[25]
  TGI: > 100 µM
[26]
  TGI: > 100 µM
[27]
  TGI: 40.2 µM
[28]
  TGI: > 100 µM
[29]
  TGI: > 100 µM
[9]
  TGI: > 100 µM
[30]
  TGI: 6.11 µM
[10]
  TGI: > 100 µM
[31]
  TGI: > 100 µM
[32]
  TGI: > 100 µM
[33]
  TGI: > 100 µM
[34]
  TGI: 5.52 µM
[11]
  TGI: > 100 µM
[12]
  TGI: > 100 µM
[35]
  TGI: > 100 µM
[13]
  TGI: 0.211 µM
[36]
  TGI: > 100 µM
[37]
  TGI: > 100 µM
[38]
  TGI: > 100 µM
[39]
  TGI: > 100 µM
[40]
  TGI: > 100 µM
[41]
  TGI: 97.7 µM
[42]
  TGI: > 100 µM
[43]
  TGI: > 100 µM
[44]
  TGI: > 100 µM
[45]
  TGI: > 100 µM
[46]
  TGI: > 100 µM
[47]
  TGI: > 100 µM
[48]
  TGI: > 100 µM
[49]
  TGI: > 100 µM
[50]
  TGI: > 100 µM
[15]
  TGI: > 100 µM
[51]
  TGI: > 100 µM
[52]
  TGI: > 100 µM
[53]
  TGI: > 100 µM
[54]
  TGI: > 100 µM
[16]
  TGI: > 100 µM
[55]
  TGI: > 100 µM
[56]
  TGI: > 100 µM
[57]
  TGI: > 100 µM

## CC(C)NC(=O)OCc1c(COC(=O)NC(C)C)c(-c2ccc[n+](COC(=O)C3CCCCC3)c2)n2c1CCC2
[1]
  TGI: > 100 µM
[17]
  TGI: 87.4 µM
[3]
  TGI: > 100 µM
[18]
  TGI: > 100 µM
[19]
  TGI: > 100 µM
[20]
  TGI: > 100 µM
[4]
  TGI: > 100 µM
[21]
  TGI: > 100 µM
[22]
  TGI: > 100 µM
[5]
  TGI: > 100 µM
[6]
  TGI: 87.5 µM
[58]
  TGI: > 100 µM
[7]
  TGI: > 100 µM
[8]
  TGI: > 100 µM
[23]
  TGI: > 100 µM
[24]
  TGI: > 100 µM
[25]
  TGI: > 100 µM
[26]
  TGI: > 100 µM
[27]
  TGI: > 100 µM
[28]
  TGI: > 100 µM
[29]
  TGI: > 100 µM
[9]
  TGI: > 100 µM
[59]
  TGI: > 100 µM
[30]
  TGI: > 100 µM
[10]
  TGI: 68.6 µM
[31]
  TGI: > 100 µM
[32]
  TGI: > 100 µM
[33]
  TGI: > 100 µM
[34]
  TGI: > 100 µM
[11]
  TGI: > 100 µM
[60]
  TGI: > 100 µM
[12]
  TGI: > 100 µM
[35]
  TGI: > 100 µM
[13]
  TGI: > 100 µM
[36]
  TGI: > 100 µM
[37]
  TGI: > 100 µM
[38]
  TGI: > 100 µM
[39]
  TGI: > 100 µM
[40]
  TGI: > 100 µM
[41]
  TGI: > 100 µM
[42]
  TGI: > 100 µM
[43]
  TGI: 58 µM
[44]
  TGI: > 100 µM
[14]
  TGI: > 100 µM
[45]
  TGI: > 100 µM
[46]
  TGI: > 100 µM
[47]
  TGI: > 100 µM
[48]
  TGI: > 100 µM
[49]
  TGI: > 100 µM
[50]
  TGI: > 100 µM
[15]
  TGI: > 100 µM
[51]
  TGI: > 100 µM
[52]
  TGI: > 100 µM
[53]
  TGI: > 100 µM
[54]
  TGI: > 100 µM
[16]
  TGI: > 100 µM
[55]
  TGI: > 100 µM
[56]
  TGI: > 100 µM
[57]
  TGI: > 100 µM

## C=C(Cl)C(Cl)(CBr)CCC(Cl)C(C)C (stereo not given)
[17]
  TGI: 14 µM
[3]
  TGI: 9.52 µM
[18]
  TGI: > 100 µM
[19]
  TGI: 9.99 µM
[20]
  TGI: 3.45 µM
[4]
  TGI: > 62.9 µM
[21]
  TGI: 1.88 µM
[22]
  TGI: 5.8 µM
[5]
  TGI: > 89.5 µM
[6]
  TGI: 14.4 µM
[58]
  TGI: 50 µM
[7]
  TGI: 23.9 µM
[8]
  TGI: > 54.7 µM
[23]
  TGI: > 65.5 µM
[24]
  TGI: 27.9 µM
[25]
  TGI: 27.9 µM
[26]
  TGI: 5.96 µM
[27]
  TGI: 25.4 µM
[28]
  TGI: 2.57 µM
[29]
  TGI: 22.1 µM
[9]
  TGI: 30.8 µM
[59]
  TGI: > 100 µM
[30]
  TGI: 5.66 µM
[10]
  TGI: 5.74 µM
[31]
  TGI: 33.2 µM
[32]
  TGI: 15.2 µM
[33]
  TGI: 6.48 µM
[34]
  TGI: 2.59 µM
[60]
  TGI: 22 µM
[12]
  TGI: 4.29 µM
[35]
  TGI: 27.1 µM
[13]
  TGI: 7.4 µM
[36]
  TGI: 20.6 µM
[37]
  TGI: 29.3 µM
[38]
  TGI: 5.47 µM
[39]
  TGI: 5.62 µM
[40]
  TGI: 26.2 µM
[41]
  TGI: > 100 µM
[42]
  TGI: 4.07 µM
[43]
  TGI: 15.8 µM
[44]
  TGI: 16.3 µM
[14]
  TGI: 3.52 µM
[45]
  TGI: 6.02 µM
[46]
  TGI: 0.955 µM
[47]
  TGI: 11.8 µM
[48]
  TGI: 14.2 µM
[49]
  TGI: 10.3 µM
[50]
  TGI: 28.4 µM
[15]
  TGI: 2.94 µM
[51]
  TGI: 6.11 µM
[52]
  TGI: 4.26 µM
[53]
  TGI: 3.77 µM
[54]
  TGI: 42.8 µM
[16]
  TGI: 3.12 µM
[55]
  TGI: 11.5 µM
[56]
  TGI: 0.411 µM
[57]
  TGI: 42.6 µM
